According to paper PMC11062899, “De novo development of small cyclic peptides that are orally bioavailable” (Nature Chemical Biology, 2023):
Values joined by “and” are separate entries in the source; they are usually repeats but may differ in a detail not shown here. Identical values can stand only once.

Key:
[1] = Passive artificial membrane permeability (PAMPA)
[2] = molecular target: human α-thrombin (Homo sapiens, UniProt P00734); assay: Sub-library screen for active and permeable cyclic peptides (PAMPA plus thrombin inhibition); type: biochemical; settings: crude, slopes normalized to DMSO; for Residual thrombin activity: Top sample: PAMPA acceptor well after 14 h, 5 μM donor; for Residual thrombin activity: Equilibrated sample: donor sample diluted to theoretical equilibrium (1 μM in assay)
Outline: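 Acylated cyclic peptides at 5 μM in PBS pH 7.4 with 5% DMSO were run through PAMPA for 14 h at room temperature. Acceptor wells and a diluted donor sample at 3 μM, representing maximum permeability, were preincubated 10 min with human α-thrombin (6 nM stock). Z-Gly-Gly-Arg-AMC (150 μM stock) fluorescence was then read for 30 min at 25 °C, and inhibition was taken against a no-peptide control.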

Row | SMILES | Residual thrombin activity: Top sample [2] | Residual thrombin activity: Equilibrated sample [2] | other results
1 | CC(C)NCC(O)COc1cccc2ccccc12 (centres unmarked) [Propranolol, reference compound] |  |  | PAMPA permeability: % permeability ([1]; 50 μM, 12–18 h, acceptor concentration relative to equilibrium): 71 ± 9%; Permeability% Average ([1]; 50 μM, 13 h (Fig. 5d)): 91.0%; Permeability% (single replicates R1–R3) ([1]; 50 μM, 13 h (Fig. 5d), listed as Probranolol): 87.80% and 90.16% and 95.18%; Papp at 50 μM ([1]; PAMPA, pH 7.4): 12.3 ×10⁻⁶ cm/s; Permeability% Average ([1]; top well sample vs theoretical equilibrium sample (TIC), average of R1-R3): 71.1%; Permeability% ([1]; top well sample vs theoretical equilibrium sample (TIC), single replicates R1-R3, listed as Probranolol): 79.61% and 72.27% and 61.48%
2 | O=C1C[C@H]2CCCN2C(=O)[C@H](Cc2ccc(Cl)cc2)NC(=O)[C@@H](NC(=O)c2ccc(Cl)s2)CCSCc2ccc(cc2)CSCCN1 [C2-X34-L3] | 99.4 | 99.1 | 
3 | CN1C(=O)[C@@H](NC(=O)c2ccc(Cl)s2)CCCSC/C=C/CSCCNC(=O)C[C@H]2CCCN2C(=O)[C@@H]1Cc1ccccc1 [C3-X32-L4] | 101.4 | 100.1 | 
4 | Cc1cccc(C[C@@H]2NC(=O)[C@@H](NC(=O)c3ccc(Cl)s3)CSCc3cccc(c3)CSCCNC(=O)C[C@H]3CCCN3C2=O)c1 [C1-X37-L5] | 100.9 | 88.0 | 
5 | O=C1C[C@H]2CCCN2C(=O)[C@H](Cc2ccc(Cl)cc2)NC(=O)[C@@H](NC(=O)c2ccc(Cl)s2)CCSCc2cccc(c2)CSCCN1 [C2-X34-L5] | 106.3 | 106.4 | 
6 | N#Cc1ccc(C[C@@H]2NC(=O)[C@@H](NC(=O)c3ccc(Cl)s3)CCSCc3cccc(c3)CSCCNC(=O)C[C@H]3CCCN3C2=O)cc1 [C2-X35-L5] | 106.2 | 101.3 | 
7 | O=C1C[C@H]2CCCN2C(=O)[C@@H](Cc2ccccc2)NC(=O)[C@@H](NC(=O)c2ccc(Cl)s2)CCSCCS(=O)(=O)CCSCCN1 [C2-X31-L2] | 98.7 | 98.6 | 
8 | CN1C(=O)[C@@H](NC(=O)c2ccc(Cl)s2)CCSCc2ccc(cc2)CSCCNC(=O)C[C@H]2CCCN2C(=O)[C@@H]1Cc1ccccc1 [C2-X32-L3] | 97.8 | 96.9 | 
9 | O=C1C[C@H]2CCCN2C(=O)[C@@H](Cc2ccccc2)NC(=O)[C@@H](NC(=O)c2ccc(Cl)s2)CSCCS(=O)(=O)CCSCCN1 [C1-X31-L2] | 103.5 | 90.9 | 

The next lines start with results.

Row | Residual thrombin activity: Top sample [2] | Residual thrombin activity: Equilibrated sample [2] | SMILES | other results
10 | 88.7 | 68.9 | O=C1C[C@H]2CCCN2C(=O)[C@H](Cc2ccccc2)NC(=O)[C@@H](NC(=O)c2ccc(Cl)s2)CSCc2ccc(cc2)CSCCN1 [C1-X5-L3] | 
11 | 92.7 | 101.7 | CN1C(=O)[C@@H](NC(=O)c2ccc(Cl)s2)CCSCc2cccc(n2)CSCCNC(=O)C[C@H]2CCCN2C(=O)[C@@H]1Cc1ccccc1 [C2-X32-L1] | 
12 | 103.7 | 93.3 | O=C1CSCCC[C@H](NC(=O)c2ccc(Cl)s2)C(=O)N[C@@H](Cc2ccc(Cl)cc2)C(=O)N2CCC[C@@H]2CC(=O)NCCSC1 [C3-X34-L7] | 
13 | 99.4 | 96.8 | O=C1C[C@H]2CCCN2C(=O)[C@@H](Cc2ccccc2)NC(=O)[C@@H](NC(=O)c2ccc(Cl)s2)CCCSCc2ccc(cc2)CSCCN1 [C3-X31-L3] | 
14 | 101.3 | 103.0 | COc1ccc(C[C@@H]2NC(=O)[C@@H](NC(=O)c3ccc(Cl)s3)CCCSCc3cccc(c3)CSCCNC(=O)C[C@H]3CCCN3C2=O)cc1 [C3-X33-L5] | 
15 | 96.8 | 96.3 | O=C1CSCCNC(=O)C[C@H]2CCCN2C(=O)[C@@H](Cc2ccccc2)NC(=O)[C@@H](NC(=O)c2ccc(Cl)s2)CSC1 [C1-X31-L7] | 
16 | 101.7 | 98.3 | CN1C(=O)[C@@H](NC(=O)c2ccc(Cl)s2)CCCSCc2ccc(cc2)CSCCNC(=O)C[C@H]2CCCN2C(=O)[C@@H]1Cc1ccccc1 [C3-X32-L3] | 
17 | 95.8 | 96.1 | N#Cc1ccc(C[C@@H]2NC(=O)[C@@H](NC(=O)c3ccc(Cl)s3)CCSCc3cccc(n3)CSCCNC(=O)C[C@H]3CCCN3C2=O)cc1 [C2-X35-L1] | 
